Measurements taken from patent US6713634B2, “Pyrroloazepine derivatives” (Daiichi Suntory Pharma Co., Ltd., priority 1995, dated 2004).

Assays:
serotonin-2 receptor = assay: Anti-serotonin (5-HT) action: contraction of isolated superior mesenteric artery induced by 10^−5 M 5-HT; settings: contraction by 10^−5 M 5-HT taken as 100%, guinea pig superior mesenteric artery
Description: (1) Anti-Serotonin (5-HT) Action
A preparation cut in a helical form was suspended under resting tension of 0.3 g in a Magnus cylinder filled with the Tyrode solution which had been aerated with a gas mixture of 95% O2 and 5% CO2 and maintained at 37° C. Using an isometric transducer (“UL-10”, manufactured by SHINKOH K.K.) and a pressure preamplifier (“DSA-605A”, manufactured by SHINKOH K.K.), variations in tension were measured. The isometric tensions were recorded on a pen-writing recorder (“VP-6537A”, manufactured by NATIONAL K.K.). Taking the contraction induced by 10^−5 M serotonin (5-HT) as 100%, the percent contractions by 10^−5 M 5-HT in the presence of each test drug at 10^−8 M, 10^−7 M and 10^−6 M were determined as anti-5-HT action.

α1 receptors = assay: Anti-α1 action: tonic contraction of isolated thoracic aorta induced by 10^−5 M norepinephrine; settings: tonic contraction by 10^−5 M norepinephrine taken as 100%, guinea pig thoracic aorta
Description: The thoracic aorta of each Hartley male guinea pig (body weight: 300-500 g) was excised. A preparation cut in a helical form was suspended under 1 g load in a Magnus cylinder filled with the Tyrode solution which had been aerated with a gas mixture of 95% O2 and 5% CO2 and maintained at 37° C. Using an isometric transducer (“TB-612J”, manufactured by Nihon Kohden Corporation) and a pressure preamplifier (“AP-620G”, manufactured by Nihon Kohden Corporation), variations in tension were measured. The isometric tensions were recorded on a thermal pen-writing recorder (“WT-647G”, manufactured by Nihon Kohden Corporation). Taking the tonic contraction induced by 10^−5 M norepinephrine (NE) as 100%, the percent contractions upon addition of each test drug at 10^−8 M and 10^−7 M were determined as α1 action.

SMILES	Anti 5-HT action (% of Control) (serotonin-2 receptor; test drug 10^−7 M)	Anti 5-HT action (% of Control) (serotonin-2 receptor; test drug 10^−8 M)	Anti α1 action (% of Control) (α1 receptors; test drug 10^−7 M)	Anti α1 action (% of Control) (α1 receptors; test drug 10^−8 M)	Anti 5-HT action (% of Control) (serotonin-2 receptor; test drug 10^−6 M)
Cn1ccc2c1C(=O)CCN(CCCN1CCC(c3noc4cc(F)ccc34)CC1)C2=O [Compound No. 50, 5-[3-[4-(6-fluoro-1,2-benzisoxazol-3-yl)piperidino]propyl]-1-methyl-1,4,5,6,7,8-hexahydropyrrolo[3,2-c]azepine-4,8-dione]	25.1 % of Control	67.5 % of Control	34.2 % of Control	67.1 % of Control	–
Cn1ccc2c1C1(CCN(CCCN3CCN(c4ccc(F)cc4)CC3)C2=O)SCCS1 [Compound No. 52, 5-[3-[4-(4-fluorophenyl)piperazin-1-yl]propyl]-1-methyl-1,4,5,6,7,8-hexahydropyrrolo-[3,2-c]azepin-4-one-8-spiro-2′-(1′,3′-dithiolane)]	20.9 % of Control	75.5 % of Control	75.8 % of Control	96.8 % of Control	–
Cn1ccc2c1C(=NO)CCN(CCCN1CCN(c3ccc(F)cc3)CC1)C2=O [Compound No. 53, 5-[3-[4-(4-fluorophenyl)piperazin-1-yl]propyl]-8-hydroxyimino-1-methyl-1,4,5,6,7,8-hexahydropyrrolo[3,2-c]azepin-4-one]	87.1 % of Control	–	60.1 % of Control	86.1 % of Control	48.2 % of Control
Cn1cc2c(c1)/C(=N\O)CCN(CCCN1CCN(c3ccc(F)cc3)CC1)C2=O [Compound No. 55, 5-[3-[4-(4-fluorophenyl)piperazin-1-yl]propyl]-8-[(Z)-hydroxyimino]-2-methyl-2,4,5,6,7,8-hexahydropyrrolo[3,4-c]azepin-4-one]	59.5 % of Control	–	73.5 % of Control	97.6 % of Control	11.0 % of Control
Cn1ccc2c1C(O)CCN(CCN1CCN(c3ccc(F)cc3)CC1)C2=O (stereo not drawn) [Compound No. 56, 5-[2-[4-(4-fluorophenyl)piperazin-1-yl]ethyl]-8-hydroxy-1-methyl-1,4,5,6,7,8-hexahydropyrrolo[3,2-c]azepin-4-one]	90.2 % of Control	–	71.4 % of Control	96.7 % of Control	47.9 % of Control
Cn1ccc2c1C(O)CCN(CCCN1CCN(c3ccc(F)cc3)CC1)C2=O (stereo not drawn) [Compound No. 57, 5-[3-[4-(4-fluorophenyl)piperazin-1-yl]propyl]-8-hydroxy-1-methyl-1,4,5,6,7,8-hexahydropyrrolo[3,2-c]azepin-4-one]	12.0 % of Control	54.6 % of Control	91.4 % of Control	100 % of Control	7.5 % of Control
Cc1cn(C)c2c1C(=O)N(CCCN1CCN(c3ccc(F)cc3)CC1)CCC2O (stereo not drawn) [Compound No. 59, 5-[3-[4-(4-fluorophenyl)piperazin-1-yl]propyl]-8-hydroxy-1,3-dimethyl-1,4,5,6,7,8-hexahydropyrrolo[3,2-c]azepin-4-one]	12.5 % of Control	48.5 % of Control	47.3 % of Control	81.6 % of Control	–
O=C1c2ccn(-c3ccccc3)c2C(O)CCN1CCCN1CCN(c2ccc(F)cc2)CC1 (stereo not drawn) [Compound No. 61, 5-[3-[4-(4-fluorophenyl)piperazin-1-yl]propyl]-8-hydroxy-1-phenyl-1,4,5,6,7,8-hexahydropyrrolo[3,2-c]azepin-4-one]	74.3 % of Control	–	39.4 % of Control	96.1 % of Control	37.3 % of Control
O=C1c2ccn(Cc3ccccc3)c2C(O)CCN1CCCN1CCN(c2ccc(F)cc2)CC1 (stereo not drawn) [Compound No. 62, 1-benzyl-5-[3-[4-(4-fluorophenyl)piperazin-1-yl]propyl]-8-hydroxy-1,4,5,6,7,8-hexahydropyrrolo[3,2-c]azepin-4-one]	50.6 % of Control	–	31.7 % of Control	95.0 % of Control	11.1 % of Control
Cn1ccc2c1C(O)CCN(CCCN1CCC(c3ccccc3)CC1)C2=O (stereo not drawn) [Compound No. 73, 8-hydroxy-1-methyl-5-[3-(4-phenylpiperidino)propyl]-1,4,5,6,7,8-hexahydropyrrolo-[3,2-c]azepin-4-one]	54.7 % of Control	90.7 % of Control	94.0 % of Control	99.3 % of Control	14.9 % of Control
Cn1ccc2c1C(O)CCN(CCCN1CCC(C(=O)c3ccc(F)cc3)CC1)C2=O (stereo not drawn) [Compound No. 75, 5-[3-[4-(4-fluorobenzoyl)piperidino]-propyl]-8-hydroxy-1-methyl-1,4,5,6,7,8-hexahydropyrrolo[3,2-c]azepin-4-one]	71.7 % of Control	–	70.3 % of Control	98.3 % of Control	25.2 % of Control
COC1CCN(CCCN2CCN(c3ccc(Cl)cc3)CC2)C(=O)c2ccn(C)c21 (stereo not drawn) [Compound No. 76, 5-[3-[4-(4-chlorophenyl)piperazin-1-yl]propyl]-8-methoxy-1-methyl-1,4,5,6,7,8-hexahydropyrrolo[3,2-c]azepin-4-one]	35.5 % of Control	–	88.1 % of Control	98.9 % of Control	7.2 % of Control
Cn1ccc2c1C=CCN(CCCN1CCN(c3ccc(Cl)cc3)CC1)C2=O [Compound No. 79, 5-[3-[4-(4-chlorophenyl)piperazin-1-yl]propyl]-1-methyl-1,4,5,6-tetrahydropyrrolo[3,2-c]azepin-4-one]	31.8 % of Control	78.3 % of Control	58.1 % of Control	94.8 % of Control	–
Cn1ccc2c1CCCN(CCCN1CCN(c3ccc(F)cc3)CC1)C2=O [Compound No. 82, 5-[3-[4-(4-fluorophenyl)piperazin-1-yl]propyl]-1-methyl-1,4,5,6,7,8-hexahydropyrrolo-[3,2-c]azepin-4-one]	8.4 % of Control	35.2 % of Control	37.6 % of Control	87.6 % of Control	–
Cn1ccc2c1[C@H](O)CCN(CCCN1CCN(c3ccc(F)cc3)CC1)C2=O [Compound No. 84]	61.9 % of Control	82.0 % of Control	92.4 % of Control	100 % of Control	11.9 % of Control
